Laboratory results reported in patent publication US20220218679A1, “NOVEL COMPOUNDS AND PHARMACEUTICAL COMPOSITIONS THEREOF FOR THE TREATMENT OF INFLAMMATORY DISORDERS” (Galapagos NV, priority 2019, published 2022).
pIC50: −log10 of the molar value.

Experiments:
[1] = tested on: CL097 triggered IFNα release in human whole blood; assay: Ex vivo human IFNα release inhibition (human whole blood assay); assay type: cell-based; conditions: Homo sapiens, CL097 2 μg/mL, 3 h 30 min at 37° C.
Source text: 4.10.1. Ex Vivo Human IFNα and TNFα Release Inhibition (Human Whole Blood Assay)
The aim of the assay is to evaluate the activity of compounds of the invention on the activated TLR/IRAK-4 pathway in an ex vivo human whole blood setting. Toll-like receptors (TLRs) are pattern recognition receptors that recognize a wide variety of microbial molecules, called pathogen-associated molecular patterns (PAMPs). Human TLR7 and TLR8 recognize imidazoquinoline compounds (e.g., CL097—CAS n #1026249-18-2) and single stranded RNAs as their natural ligands. Activation of TLRs leads to the production of several cytokines (e.g., IFNα, TNFα, IL-8, IL-6) by the TLR agonist-treated cells, whereas IRAK4 leads to the production of IFNα. Cytokine release is used as readout in this assay and represents a measure for the level of inhibition of the TLR/IRAK-4 pathway by the tested compound. It should be noted that in the context of the complete organism, other sources for these cytokines exist that are not dependent on the TLR/IRAK-4 pathway, such as e.g., macrophages (upon activation of the Fcγ receptor (Yan et al., 2012)) or T cells (upon activation of the T cell receptor (Brehm et al., 2005)).
4.10.1.1. Experimental Design
Blood was collected from healthy volunteers into lithium heparin tubes by venipuncture, then gently inverted several times to prevent clotting and incubated for at least 15 min at 37° C. on a rocking mixer shaker. Then, 100 μL of blood was dispensed into polypropylene 96-well microplate and pre-incubated in duplicate with 0.3% DMSO or test compound at different concentrations (from 30 to 0.01 μM, 3-fold dilutions to get 0.3% DMSO at the final) for 15 min at 37° C. After this pre-incubation, blood was triggered with CL097 (2 μg/mL from 1 mg/mL solution in water; InvivoGen, tlrl-c97) for 3 h 30 min at 37° C. Microtubes were centrifuged at 5000×g for 10 min at 4° C. and approximately 40 μL of plasma were collected into a polystyrene 96-well plate. Plasma could be analyzed freshly, within 30 min after triggering, or frozen at −80° C. Finally, the quantification of TNFα and IFNα were performed in the plasma using AlphaLISA Kit for TNFα and IFNα according to the manufacturer's instructions and read on the Ensight (PerkinElmer).
A standard curve was created by plotting on log-log the mean […] on the y-axis against the concentration on the x-axis and a 4-parameters logistic regression (4PL) was made through the points. For each blood sample, the IFNα concentrations of the samples were determined from the fit. Data were then expressed as a percentage of inhibition (PIN) for each replicate using the formula:
With mean IFNα with CL097=mean IFNα concentration of replicate samples triggered with CL097; IFNαsample1=IFNα concentration of sample 1; mean IFNα with vehicle=mean IFNα concentration of replicate samples treated with vehicle.
Curve fitting for pIC50 determination were generated using mean PIN±sem. Graphs and pIC50 calculations were derived using Prism 5.03 software (GraphPad).

[2] = tested on: mouse CIA model; assay: Mouse collagen induced arthritis (CIA) model; assay type: in vivo, DBA1/J mice; conditions: 3, 10 and 30 mg/kg b.i.d., versus disease vehicle group
Protocol: Completed Freund's adjuvant (CFA) and incomplete Freund's adjuvant (IFA) were purchased from Difco. Bovine collagen type II (CII), lipopolysaccharide (LPS), and Enbrel was obtained from Chondrex (Isle d'Abeau, France); Sigma (P4252, L'Isle d'Abeau, France), Whyett (25 mg injectable syringe, France) Acros Organics (Palo Alto, Calif.), respectively. All other reagents used were of reagent grade and all solvents were of analytical grade.
DBA1/J mice (male, 7-8 weeks old) were obtained from Charles River Laboratories (France). Mice were kept on a 12 h light/dark cycle (07 h 00-19 h 00). Temperature was maintained at 22° C., and food and water were provided ad libitum.
5.1.3. Collagen Induced Arthritis (CIA)
One day before the experiment, CII solution (2 mg/mL) was prepared with 0.05 M AcOH and stored at 4° C. Just before the immunization, equal volumes of adjuvant […] and CII were mixed by a homogenizer in a pre-cooled glass bottle in an ice water bath. Extra adjuvant and prolonged homogenization may be required if an emulsion was not formed. […]
The therapeutic effects of the compounds were tested in the mouse CIA model. […] Body weight and clinical score, were recorded twice a week. […]
Arthritis is scored according to the method of (Khachigian, 2006; Lin et al., 2007; Nishida et al., 2004). […]
For each readout, mean and sem are calculated. […]

| SMILES | pIC50 [1] | effect on bone erosion Larsen Score [2] | effect on clinical score [2] |
| --- | --- | --- | --- |
| COc1cn2nc(CCC(C)(C)O)cc2cc1NC(=O)c1cccn(C2CC2)c1=O [Compound 1, 1-cyclopropyl-N-[2-(3-hydroxy-3-methylbutyl)-6-methoxypyrazolo[1,5-a]pyridin-5-yl]-2-oxopyridine-3-carboxamide] | 6.30 to 10.00 | statistically significant effect | statistically significant effect |
| CC(C)(O)CCc1cc2cc(NC(=O)c3cccc(C(F)F)n3)c(C(N)=O)cn2n1 [Compound 20, 5-[[6-(difluoromethyl)pyridine-2-carbonyl]amino]-2-(3-hydroxy-3-methyl-butyl)pyrazolo[1,5-a]pyridine-6-carboxamide] | 5.30 to 6.00 |  |  |
| COc1cn2nc(CCC(C)(C)O)cc2cc1NC(=O)c1cccn(C2CCC2)c1=O [Compound 21, 1-cyclobutyl-N-[2-(3-hydroxy-3-methyl-butyl)-6-methoxy-pyrazolo[1,5-a]pyridin-5-yl]-2-oxo-pyridine-3-carboxamide] | 5.30 to 6.00 |  |  |
| COc1cn2nc(CC(F)C(C)(C)O)cc2cc1NC(=O)c1cccn(C2CC2)c1=O (centres unmarked) [Compound 22, 1-cyclopropyl-N-[2-(2-fluoro-3-hydroxy-3-methyl-butyl)-6-methoxy-pyrazolo[1,5-a]pyridin-5-yl]-2-oxo-pyridine-3-carboxamide] | 6.00 to 6.30 |  |  |
| [2H]C([2H])([2H])C(O)(CCc1cc2cc(NC(=O)c3cccn(C4CC4)c3=O)c(OC)cn2n1)C([2H])([2H])[2H] [Compound 23, 1-cyclopropyl-N-[6-methoxy-2-[4,4,4-trideuterio-3-hydroxy-3-(trideuteriomethyl)butyl]pyrazolo[1,5-a]pyridin-5-yl]-2-oxo-pyridine-3-carboxamide] | 6.00 to 6.30 |  |  |
| [2H]C([2H])([2H])Oc1cn2nc(CCC(C)(C)O)cc2cc1NC(=O)c1cccn(C2CC2)c1=O [Compound 24, 1-cyclopropyl-N-[2-(3-hydroxy-3-methylbutyl)-6-(trideuteriomethoxy)pyrazolo[1,5-a]pyridin-5-yl]-2-oxopyridine-3-carboxamide] | 6.30 to 10.00 |  |  |
